Reference: patent US20260365670A1, “EGFR INHIBITORS AND USES THEREOF” (DIZAL (JIANGSU) PHARMACEUTICAL CO., LTD., priority 2022, published 2026)
Like-named read-outs stand apart in the source and are kept apart here.

What was measured:
EGFR Exon19Del/T790M = target: T1, EGFR Exon19Del/T790M (Homo sapiens, UniProt P00533, DEL746-750/T790M); experiment: Inhibition of EGFR Exon19Del/T790M biochemical enzymatic activity (HTRF); conditions: 1 mM ATP
T1 construct: purchased Carna Bio
Summary of the method: (§1)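 Read-out is the HTRF 665/615 nm ratio (excitation 320 nm), taken as proportional to kinase activity after a 1 h room-temperature reaction with 1 mM ATP and 1 μM biotinylated TK substrate. IC50 values derive from four-parameter logistic fitting.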

EGFR wild type = target: T2, EGFR wild type (Homo sapiens, UniProt P00533); experiment: Inhibition of EGFR wild type biochemical enzymatic activity (HTRF); conditions: 1 mM ATP
T2 construct: purchased Carna Bio
T2 sequence (P00533 25-1210): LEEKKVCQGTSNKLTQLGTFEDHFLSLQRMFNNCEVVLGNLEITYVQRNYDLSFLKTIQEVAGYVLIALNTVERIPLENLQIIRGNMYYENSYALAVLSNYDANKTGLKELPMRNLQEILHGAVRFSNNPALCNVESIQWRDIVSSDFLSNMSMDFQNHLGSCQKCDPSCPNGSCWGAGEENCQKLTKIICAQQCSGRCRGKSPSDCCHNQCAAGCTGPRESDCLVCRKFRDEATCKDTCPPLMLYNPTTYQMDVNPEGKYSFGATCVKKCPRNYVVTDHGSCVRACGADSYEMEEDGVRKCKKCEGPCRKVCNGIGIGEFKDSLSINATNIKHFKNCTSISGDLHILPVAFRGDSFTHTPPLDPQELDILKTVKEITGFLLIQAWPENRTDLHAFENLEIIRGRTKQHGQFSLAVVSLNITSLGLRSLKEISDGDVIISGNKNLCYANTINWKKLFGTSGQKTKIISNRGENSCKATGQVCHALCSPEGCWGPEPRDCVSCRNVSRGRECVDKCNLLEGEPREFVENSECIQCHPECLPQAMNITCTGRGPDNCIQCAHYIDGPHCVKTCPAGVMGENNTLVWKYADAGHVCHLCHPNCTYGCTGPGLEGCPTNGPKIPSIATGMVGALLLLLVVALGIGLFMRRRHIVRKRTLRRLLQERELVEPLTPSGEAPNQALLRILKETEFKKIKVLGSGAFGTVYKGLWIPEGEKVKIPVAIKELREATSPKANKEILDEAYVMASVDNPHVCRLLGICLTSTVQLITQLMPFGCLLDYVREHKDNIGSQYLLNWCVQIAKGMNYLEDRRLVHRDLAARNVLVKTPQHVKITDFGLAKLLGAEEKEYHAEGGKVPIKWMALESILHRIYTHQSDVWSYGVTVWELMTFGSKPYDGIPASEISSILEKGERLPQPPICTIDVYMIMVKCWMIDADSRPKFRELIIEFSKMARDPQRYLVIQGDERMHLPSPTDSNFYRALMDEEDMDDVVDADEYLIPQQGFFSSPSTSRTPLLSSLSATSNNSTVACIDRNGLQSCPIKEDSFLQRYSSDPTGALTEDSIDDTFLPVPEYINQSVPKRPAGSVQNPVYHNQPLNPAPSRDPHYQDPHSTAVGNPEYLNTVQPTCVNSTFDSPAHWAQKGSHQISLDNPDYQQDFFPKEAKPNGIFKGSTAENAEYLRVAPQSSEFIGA
Summary of the method: as §1

EGFR Exon19Del = target: T3, EGFR Exon19Del (Homo sapiens, UniProt P00533, DEL746-750); experiment: Inhibition of EGFR Exon19Del biochemical enzymatic activity (HTRF); conditions: read-out: IC50 @Del19
T3 construct: purchased Carna Bio
T3 sequence (P00533 with tags, fused parts or gaps DEL746-750 limits assumed): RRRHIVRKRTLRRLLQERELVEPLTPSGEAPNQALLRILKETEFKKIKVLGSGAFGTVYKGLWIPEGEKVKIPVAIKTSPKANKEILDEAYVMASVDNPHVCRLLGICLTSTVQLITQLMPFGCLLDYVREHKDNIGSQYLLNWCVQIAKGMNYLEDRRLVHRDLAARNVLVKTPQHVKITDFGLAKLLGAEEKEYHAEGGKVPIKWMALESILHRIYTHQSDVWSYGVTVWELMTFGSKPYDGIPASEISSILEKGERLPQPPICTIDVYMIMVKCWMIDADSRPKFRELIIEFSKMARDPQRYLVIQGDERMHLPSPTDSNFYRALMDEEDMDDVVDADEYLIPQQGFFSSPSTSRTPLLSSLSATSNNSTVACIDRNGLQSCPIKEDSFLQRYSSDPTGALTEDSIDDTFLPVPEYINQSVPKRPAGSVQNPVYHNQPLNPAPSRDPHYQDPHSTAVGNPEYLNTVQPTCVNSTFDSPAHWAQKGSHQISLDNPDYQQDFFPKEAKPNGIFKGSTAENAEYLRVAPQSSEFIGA
Summary of the method: as §1

EGFR (d746-750 C797S) = target: T4, EGFR (d746-750 C797S) (Homo sapiens, UniProt P00533, C797S/DEL746-750); experiment: Inhibition of EGFR (d746-750 C797S) biochemical enzymatic activity (HTRF); conditions: 1 mM ATP
T4 construct: purchased signalchem
T4 sequence (P00533 with tags, fused parts or gaps DEL746-750/C797S limits assumed): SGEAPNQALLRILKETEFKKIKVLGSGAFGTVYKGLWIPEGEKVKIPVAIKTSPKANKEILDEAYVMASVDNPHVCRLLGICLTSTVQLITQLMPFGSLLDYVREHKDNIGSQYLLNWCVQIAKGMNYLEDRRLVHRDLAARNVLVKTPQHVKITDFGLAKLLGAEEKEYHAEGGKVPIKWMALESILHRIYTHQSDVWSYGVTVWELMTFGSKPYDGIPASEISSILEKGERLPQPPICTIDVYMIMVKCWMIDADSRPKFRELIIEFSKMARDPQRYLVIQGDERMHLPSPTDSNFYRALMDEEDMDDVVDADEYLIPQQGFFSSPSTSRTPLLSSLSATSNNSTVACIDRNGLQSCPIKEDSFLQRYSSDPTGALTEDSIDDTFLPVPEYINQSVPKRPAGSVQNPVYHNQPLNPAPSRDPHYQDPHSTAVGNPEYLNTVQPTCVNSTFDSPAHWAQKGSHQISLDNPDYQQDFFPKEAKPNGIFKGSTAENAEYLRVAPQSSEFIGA
Summary of the method: as §1

EGFR (C797S L858R) = target: T5, EGFR (C797S L858R) (Homo sapiens, UniProt P00533, C797S/L858R); experiment: Inhibition of EGFR (C797S L858R) biochemical enzymatic activity (HTRF); conditions: 1 mM ATP
T5 construct: purchased signalchem
Summary of the method: as §1

[1] = target: T6, EGFR[T790M/C797S/d746-750] (Homo sapiens, UniProt P00533, C797S/DEL746-750/T790M); experiment: Inhibition of EGFR[T790M/C797S/d746-750] biochemical enzymatic activity (HTRF)
T6 construct: purchased Carna Bio
T6 sequence (P00533 with tags, fused parts or gaps DEL746-750/T790M/C797S limits assumed): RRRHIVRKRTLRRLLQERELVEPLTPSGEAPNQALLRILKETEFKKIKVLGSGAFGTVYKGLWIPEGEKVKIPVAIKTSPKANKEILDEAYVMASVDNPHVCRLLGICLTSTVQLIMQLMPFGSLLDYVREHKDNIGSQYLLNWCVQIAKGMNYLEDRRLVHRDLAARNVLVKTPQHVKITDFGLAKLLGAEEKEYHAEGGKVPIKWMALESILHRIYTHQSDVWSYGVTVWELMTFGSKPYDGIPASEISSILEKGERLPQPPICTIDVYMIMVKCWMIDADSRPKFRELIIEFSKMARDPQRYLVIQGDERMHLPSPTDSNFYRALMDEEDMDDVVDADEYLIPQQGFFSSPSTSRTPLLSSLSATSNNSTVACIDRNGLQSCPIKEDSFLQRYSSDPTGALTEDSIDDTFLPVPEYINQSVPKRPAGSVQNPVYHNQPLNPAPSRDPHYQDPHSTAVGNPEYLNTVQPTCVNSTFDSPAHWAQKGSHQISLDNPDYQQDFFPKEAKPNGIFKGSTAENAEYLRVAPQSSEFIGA
Summary of the method: as §1

EGFR[T790M/C797S/L858R] = target: T7, EGFR[T790M/C797S/L858R] (Homo sapiens, UniProt P00533, C797S/L858R/T790M); experiment: Inhibition of EGFR[T790M/C797S/L858R] biochemical enzymatic activity (HTRF); conditions: 1 mM ATP
T7 construct: purchased Carna Bio
T7 sequence (P00533 25-1210 T790M/C797S/L858R): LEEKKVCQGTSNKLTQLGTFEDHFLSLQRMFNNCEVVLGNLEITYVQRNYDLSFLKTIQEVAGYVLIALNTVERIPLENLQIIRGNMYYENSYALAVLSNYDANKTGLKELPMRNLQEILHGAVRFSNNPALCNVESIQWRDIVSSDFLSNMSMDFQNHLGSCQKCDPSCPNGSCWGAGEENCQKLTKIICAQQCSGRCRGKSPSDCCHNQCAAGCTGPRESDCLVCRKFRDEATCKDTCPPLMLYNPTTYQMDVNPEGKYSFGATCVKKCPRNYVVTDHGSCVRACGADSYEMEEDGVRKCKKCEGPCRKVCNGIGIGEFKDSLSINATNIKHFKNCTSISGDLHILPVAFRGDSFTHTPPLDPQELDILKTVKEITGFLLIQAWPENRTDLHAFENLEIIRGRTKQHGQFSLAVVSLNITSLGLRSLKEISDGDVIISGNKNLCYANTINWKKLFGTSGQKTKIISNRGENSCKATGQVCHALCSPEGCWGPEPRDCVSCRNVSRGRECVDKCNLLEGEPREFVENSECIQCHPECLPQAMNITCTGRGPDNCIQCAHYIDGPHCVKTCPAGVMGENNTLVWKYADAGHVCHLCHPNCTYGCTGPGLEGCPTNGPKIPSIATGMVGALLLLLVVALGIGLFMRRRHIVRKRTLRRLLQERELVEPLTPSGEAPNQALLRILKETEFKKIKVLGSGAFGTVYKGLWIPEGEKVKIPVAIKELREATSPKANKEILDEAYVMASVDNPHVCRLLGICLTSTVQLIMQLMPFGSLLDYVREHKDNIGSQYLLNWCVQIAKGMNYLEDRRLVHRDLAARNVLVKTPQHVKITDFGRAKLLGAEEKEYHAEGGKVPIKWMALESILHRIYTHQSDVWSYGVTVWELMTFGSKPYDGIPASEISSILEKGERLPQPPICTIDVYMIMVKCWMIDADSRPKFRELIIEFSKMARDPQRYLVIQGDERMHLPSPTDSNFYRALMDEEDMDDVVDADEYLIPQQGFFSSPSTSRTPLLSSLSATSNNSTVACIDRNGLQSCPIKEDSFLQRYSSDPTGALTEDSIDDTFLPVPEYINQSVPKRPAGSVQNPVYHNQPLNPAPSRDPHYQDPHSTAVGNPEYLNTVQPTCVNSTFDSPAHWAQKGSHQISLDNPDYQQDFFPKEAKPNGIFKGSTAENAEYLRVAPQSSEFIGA
Summary of the method: as §1

PC-9 = experiment: Cell proliferation assay, PC-9 cells (CellTiter-Glo, 72 hours); assay type: cell-based; conditions: Homo sapiens, PC-9, 72 h, PC9 cells, read-out: GI50 PC9
Summary of the method: (§2)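 Ba/F3 cells (5000/well) and PC-9 cells (500/well, RPMI1640 with 10% FBS) were plated overnight and then dosed with a compound concentration series. Viable cells were read at day 0 (G0) and after treatment (G3). GI50 came from curve fits of G0-corrected proliferation relative to DMSO.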

[2] = system: Ba/F3 cells expressing EGFR mutations; experiment: Cell proliferation assay, Ba/F3 cells expressing EGFR mutations (CellTiter-Glo, 72 hours); assay type: cell-based; conditions: Mus musculus, BaF3, 72 h
Summary of the method: as §2

A-431 = experiment: Cell proliferation assay, A-431 cells (GI50, Table 6); assay type: cell-based; conditions: Homo sapiens, A-431, A-431 cells
EGFR L858R = target: T8, EGFR L858R (Homo sapiens, UniProt P00533, L858R); experiment: Inhibition of EGFR L858R biochemical enzymatic activity (HTRF); conditions: 1 mM ATP
T8 construct: purchased Carna Bio
Summary of the method: as §1

EGFR L858R/T790M = target: T9, EGFR L858R/T790M (Homo sapiens, UniProt P00533, L858R/T790M); experiment: Inhibition of EGFR L858R/T790M biochemical enzymatic activity (HTRF); conditions: 1 mM ATP
T9 construct: purchased Carna Bio
Summary of the method: as §1

[3] = EGFR Del19-T790M, 1 h, room temperature, read-out: IC50 (nM) @Del19-T790M
[4] = EGFR WT, 1 h, room temperature, read-out: IC50 (nM) @WT
[5] = EGFR Del19, 1 mM ATP, 1 h, room temperature
[6] = EGFR Del19-C797S, 1 h, room temperature, read-out: IC50 (nM) @Del19-C797S
[7] = EGFR L858-C797S, 1 h, room temperature, read-out: IC50 (nM) @L858-C797S
[8] = EGFR T790M-C797S-Del19, 1 mM ATP, 1 h, room temperature, read-out: IC50 (nM) @T790M - C797S - Del19
[9] = EGFR T790M-C797S-L858R, 1 h, room temperature, read-out: IC50 (nM) @T790M- C797S - L858R
[10] = BaF3 cells, EGFR DEL19 - C797S, read-out: GI50 DEL19 - C797S/BaF3
[11] = BaF3 cells, EGFR DEL19 - T790-C797S, read-out: GI50 DEL19 - T790-C797S/BaF3
[12] = BaF3 cells, EGFR L858R - C797S, read-out: GI50 L858R - C797S/BaF3
[13] = BaF3 cells, EGFR L858R - T790-C797S, read-out: GI50 L858R - T790-C797S/BaF3
[14] = BaF3 cells, EGFR L858R - T790M, read-out: GI50 L858R - T790M/BaF3
[15] = BaF3 cells, EGFR L858R, read-out: GI50 L858R/BaF3
[16] = EGFR DEL19 - T790M, read-out: GI50 DEL19 - T790M
[17] = 1 h, room temperature, read-out: IC50 (nM) @L858R
[18] = EGFR L858R-T790M, 1 h, room temperature, read-out: IC50 (nM) @L858R-T790M

T1 sequence (P00533 with tags, fused parts or gaps DEL746-750/T790M limits assumed): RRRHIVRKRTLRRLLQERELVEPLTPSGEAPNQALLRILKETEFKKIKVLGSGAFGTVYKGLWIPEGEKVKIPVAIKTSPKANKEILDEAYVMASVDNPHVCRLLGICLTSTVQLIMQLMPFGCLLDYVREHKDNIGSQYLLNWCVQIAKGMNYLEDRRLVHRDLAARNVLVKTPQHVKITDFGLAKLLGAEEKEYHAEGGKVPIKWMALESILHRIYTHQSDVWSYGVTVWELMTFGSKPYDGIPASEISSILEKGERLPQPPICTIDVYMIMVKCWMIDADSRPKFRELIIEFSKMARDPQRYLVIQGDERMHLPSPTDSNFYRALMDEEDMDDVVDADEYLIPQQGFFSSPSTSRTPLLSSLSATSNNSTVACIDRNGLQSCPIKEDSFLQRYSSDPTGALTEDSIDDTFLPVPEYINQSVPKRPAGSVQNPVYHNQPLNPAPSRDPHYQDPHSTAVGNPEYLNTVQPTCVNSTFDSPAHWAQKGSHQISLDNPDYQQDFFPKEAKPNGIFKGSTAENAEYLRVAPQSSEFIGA

IC50 (EGFR Exon19Del/T790M; [3]) [nM] | IC50 (EGFR wild type; [4]) [nM] | IC50 (EGFR Exon19Del; [5]) [nM] | IC50 (EGFR (d746-750 C797S); [6]) [nM] | IC50 (EGFR (C797S L858R); [7]) [nM] | IC50 [1, 8] [nM] | IC50 (EGFR[T790M/C797S/L858R]; [9]) [nM] | GI50 (PC-9) [nM] | GI50 [2, 10] [nM] | GI50 [2, 11] [nM] | GI50 [2, 12] [nM] | GI50 [2, 13] [nM] | GI50 [2, 14] [nM] | GI50 [2, 15] [nM] | GI50 [2, 16] [nM] | GI50 (A-431) [nM] | IC50 (EGFR L858R; [17]) [nM] | IC50 (EGFR L858R/T790M; [18]) [nM] | further results | Compound
7.9 | 219 | 4.7 | 3.1 | 9.8 | 7.6 | 10 | 15 | 1.7 | 15 | 23 | 27 | 34 | 21 | 16 | 489 | 16 | 11 |  | C[C@@H]1CCCOc2ccccc2-c2cc(cn(C)c2=O)C(=O)Nc2nc3ccc(N4CCN(C)CC4)cc3n2C1 [Example A109, (12R)-12,27-dimethyl-17-(4-methylpiperazin-1-yl)-8-oxa-14,21,23,27-tetraazapentacyclo[23.3.1.0^{2,7}.0^{14,22}.0^{15,20}]nonacosa-1(29),2(7),3,5,15,17,19,21,25-nonaene-24,28-dione]
21 | > 5000 | 25 | 19 | 101 | 10 | 154 | 27 | 7.8 | 44 | 35 | 15 | 61 | 12 | 25 | 4970 | 167 | 477 |  | CN(C)[C@@H]1CCN(c2ccc3nc4n(c3c2)C23CCC(CC2)CN(CCOc2c(cnn2C)-c2cc(cn(C)c2=O)C(=O)N4)C3)C1 [Example A121]
 |  |  |  |  |  |  | 75 | 10 | 3 | 69 | 7 | 13 | 62 | 4 | 3740 |  |  | IC50 (EGFR Exon19Del/T790M; EGFR Exon19Del/T790M, 1 h at room temperature, read-out: IC50 @Del19-T790M): 9.9 nM; IC50 (EGFR wild type; EGFR wild type, 1 h at room temperature, read-out: IC50 @WT): > 5000 nM; IC50 (EGFR Exon19Del; EGFR Exon19Del, 1 mM ATP, 1 h at room temperature): 28 nM; IC50 (EGFR (d746-750 C797S); EGFR (d746-750 C797S), 1 h at room temperature, read-out: IC50 @Del19-C797S): 22 nM; IC50 (EGFR (C797S L858R); EGFR (C797S L858R), 1 h at room temperature, read-out: IC50 @L858-C797S): 131 nM; IC50 ([1]; EGFR[T790M/C797S/d746-750], 1 mM ATP, 1 h at room temperature, read-out: IC50 @T790M - C797S - Del19): 3 nM; IC50 (EGFR[T790M/C797S/L858R]; EGFR[T790M/C797S/L858R], 1 h at room temperature, read-out: IC50 @T790M- C797S - L858R): 6.2 nM; IC50 (EGFR L858R; 1 h at room temperature, read-out: IC50 @L858R): 214 nM; IC50 (EGFR L858R/T790M; EGFR L858R/T790M, 1 h at room temperature, read-out: IC50 @L858R-T790M): 20 nM | Cc1cc2cc(n1)-c1cnn(C)c1OCCN1CC3CCC(CC3)(C1)n1c(nc3ccc(N(C)CCCN(C)C)cc31)NC2=O [Example B33]
